According to patent publication US11013235B2 (priority 2015, dated 2021):
Where two headings read alike, the source gives them in different places.

Columns and labels:
Format in all cases: in vivo
Pratylenchus coffeae = test: Nematode control, nodules per plant: Pratylenchus coffeae; conditions: 1 μM foliar application every 5 days, evaluation 35 days after, control 42
How it was run: (§1)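 Foliar application at 1 μM; spraying every 5 days; n = 10 plants/treatment; nodules/plant scored day 35.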

Radopholus similis = test: Nematode control, nodules per plant: Radopholus similis; conditions: 1 μM foliar application every 5 days, evaluation 35 days after, control 45
How it was run: as §1

Botrytis cinerea [1] = test: Control of Botrytis cinerea disease in tobacco (Bc-Nt); conditions: 1 μM spraying every 24 hours for one week, water control 6.7
How it was run: (§2)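 Fifty pre-inoculated plants per treatment received 1 μM compound sprays daily for a week; water-sprayed plants served as controls. Disease scored as plant mortality (Nocardia), share of leaves with symptoms (A. solani) or lesion diameter (B. cinerea).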

Rhizoctonia solani [2] = test: Control of Rhizoctonia solani disease in tomato (Rs-SI); conditions: 1 μM spraying every 24 hours for one week, water control 96
Rhizoctonia solani [3] = test: Control of Rhizoctonia solani disease in tobacco (Rs-Nt); conditions: 1 μM spraying every 24 hours for one week, water control 87
Phytophthora parasitica = test: Control of Phytophthora parasitica disease in tobacco (Pp-Nt); conditions: 1 μM spraying every 24 hours for one week, water control 91
Alternaria solani = test: Control of Alternaria solani disease in tomato (As-SI); conditions: 1 μM spraying every 24 hours for one week, water control 68
How it was run: as §2

Botrytis cinerea [4] = test: Control of Botrytis cinerea disease in tomato (Bc-SI); conditions: 1 μM spraying every 24 hours for one week, water control 7.4
How it was run: as §2

Botrytis cinerea [5] = test: Control of Botrytis cinerea disease in Arabidopsis (Bc-At); conditions: 1 μM spraying every 24 hours for one week, water control 8.7
How it was run: as §2

Nocardia sp = test: Control of Nocardia sp disease in tobacco (N-Nt); conditions: 1 μM spraying every 24 hours for one week, water control 58
How it was run: as §2

Meloidogyne incognita = test: Nematode control, nodules per plant: Meloidogyne incognita; conditions: 1 μM foliar application every 5 days, evaluation 35 days after, control 34
How it was run: as §1

[6] = test system: Candidatus 'Liberibacter asiaticus'; conditions: spraying every 15 days, 12 months after treatment, Citrus sinensis with HLB

Structure (SMILES)	Pc: number of nodules per plant (Pratylenchus coffeae)	Rs: number of nodules per plant (Radopholus similis)	Bc-Nt: mean of the diameter of the lesion (Botrytis cinerea [1])	Rs-SI: percentage of mortality (Rhizoctonia solani [2])	Rs-Nt: percentage of mortality (Rhizoctonia solani [3])	Pp-Nt: percentage of mortality (Phytophthora parasitica)	As-SI: percentage of leaves with the disease symptoms (Alternaria solani)	Bc-SI: mean of the diameter of the lesion (Botrytis cinerea [4])	Bc-At: mean of the diameter of the lesion (Botrytis cinerea [5])	N-Nt: percentage of mortality (Nocardia sp)	Mi: number of nodules per plant (Meloidogyne incognita)	Titers of the bacterium ([6]; 0.001 μM)	Titers of the bacterium ([6]; 0.01 μM)	Titers of the bacterium ([6]; 1 μM)	Titers of the bacterium ([6]; 5 μM)	Titers of the bacterium ([6]; 10 μM)
Cc1c2c(oc(=O)c1CC(=O)NCC(O)CO)C=CC1C(C3CCCCC3)=COC21 (stereo not drawn) [IIJ, 2-{5-cyclohexyl-13-methyl-11-oxo-3,10-dioxatricyclo[7.4.0.0^{2,6}]trideca-1(9),4,7,12-tetraen-12-yl)-N-(2,3-dihydroxypropyl)acetamide]	2	12	0.9 mm	2%	4%	1%	3%	1.2 mm	0.7 mm	2%	4	435 copies per reaction	1 copies per reaction	1 copies per reaction	45 copies per reaction	6541 copies per reaction
Cc1c2c(oc(=O)c1CC(=O)NCC(O)CO)C=CC1C(C3CCCC3)=COC21 (stereo not drawn) [IIK, 2-{5-cyclopentyl-13-methyl-11-oxo-3,10-dioxatricyclo[7.4.0.0^{2,6}]trideca-1(9),4,7,12-tetraen-12-yl}-N-(2,3-dihydroxypropyl)acetamide]	14	0	0.3 mm	2%	0%	0%	8%	0.8 mm	1.2 mm	1%	0	578 copies per reaction	8 copies per reaction	0 copies per reaction	78 copies per reaction	2365 copies per reaction
Cc1c2c(oc(=O)c1CC(=O)NCC(O)CO)C=CC1C(c3ccc4ccccc4c3)=COC21 (stereo not drawn) [IIL, N-(2,3-dihydroxypropyl)-2-[13-methyl-5-(naphthalen-2-yl)-11-oxo-3,10-dioxatricyclo[7.4.0.0^{2,6}]trideca-1(9),4,7,12-tetraen-12-yl]acetamide]	0	0	2.0 mm	0%	0%	0%	7%	1.6 mm	1.1 mm	0%	0	635 copies per reaction	1 copies per reaction	0 copies per reaction	65 copies per reaction	5478 copies per reaction
Cc1c2c(oc(=O)c1CC(=O)NCC(O)CO)C=CC1C=COC21 (stereo not drawn) [IIM, N-(2,3-dihydroxypropyl)-2-{13-methyl-11-oxo-3,10-dioxatricyclo[7.4.0.0^{2,6}]trideca-1(9),4,7,12-tetraen-12-yl}acetamide]	0	0	0.9 mm	1%	0%	0%	5%	0.8 mm	0.5 mm	0%	0	524 copies per reaction	0 copies per reaction	0 copies per reaction	54 copies per reaction	8542 copies per reaction
Cc1c2c(oc(=O)c1CC(=O)NCC(O)CO)C=CC1C(n3cccc3)=COC21 (stereo not drawn) [IIN, N-(2,3-dihydroxypropyl)-2-[13-methyl-11-oxo-5-(1H-pyrrol-1-yl)-3,10-dioxatricyclo[7.4.0.0^{2,6}]trideca-1(9),4,7,12-tetraen-12-yl]acetamide]	0	3	1.5 mm	1%	0%	3%	7%	2.5 mm	1.5 mm	0%	0	598 copies per reaction	0 copies per reaction	0 copies per reaction	98 copies per reaction	9654 copies per reaction
Cc1c(CCC(=O)NCC(O)CO)c(=O)oc2cc3occ(C4CCCCC4)c3cc12 (stereo not drawn) [IJ, 3-{6-cyclohexyl-4-methyl-2-oxo-2H-furo[3,2-g]chromen-3-yl}-N-(2,3-dihydroxypropyl)propanamide]	24	18	1.5 mm	2%	4%	1%	3%	2.5 mm	1.5 mm	2%	4	456 copies per reaction	0 copies per reaction	18 copies per reaction	46 copies per reaction	5840 copies per reaction
Cc1c(CCC(=O)NCC(O)CO)c(=O)oc2cc3occ(C4CCCC4)c3cc12 (stereo not drawn) [IK, 3-{6-cyclopentyl-4-methyl-2-oxo-2H-furo[3,2-g]chromen-3-yl}-N-(2,3-dihydroxypropyl)propanamide]	15	0	1.5 mm	2%	0%	0%	8%	0.8 mm	2.4 mm	1%	0	435 copies per reaction	0 copies per reaction	0 copies per reaction	45 copies per reaction	6521 copies per reaction
Cc1c(CCC(=O)NCC(O)CO)c(=O)oc2cc3occ(-c4ccc5ccccc5c4)c3cc12 (stereo not drawn) [IL, N-(2,3-dihydroxypropyl)-3-[4-methyl-6-(naphthalen-2-yl)-2-oxo-2H-furo[3,2-g]chromen-3-yl]propanamide]	0	0	0.9 mm	0%	0%	0%	7%	1.2 mm	0.7 mm	0%	0	578 copies per reaction	0 copies per reaction	0 copies per reaction	78 copies per reaction	3574 copies per reaction
Cc1c(CCC(=O)NCC(O)CO)c(=O)oc2cc3occc3cc12 (stereo not drawn) [IM, N-(2,3-dihydroxypropyl)-3-{4-methyl-2-oxo-2H-furo[3,2-g]chromen-3-yl}propanamide]	0	0	0.3 mm	1%	0%	0%	5%	0.8 mm	1.2 mm	0%	0	635 copies per reaction	0 copies per reaction	0 copies per reaction	65 copies per reaction	3541 copies per reaction
